The values that follow come from US20180271873A1, “METHODS FOR TREATING VIRAL INFECTIONS” (priority 2015, published 2018).

This assay deals with GFP-expressing Zaire Ebolavirus Mayinga-GFP. Briefly: microbe, parasite or virus in culture. In kind it is cell-based. The conditions noted are these: HeLa, read-out: Activity (Biological activity, EC50).

A value given as a limit tells only on which side of the number the result lay.

As to `Cc1cccc(/C=N/Nc2cc(N3CCOCC3)nc(OC(C)Cc3ccccn3)n2)c1` (stereo not drawn) [Compound 28, (E)-4-(6-(2-(3-Methylbenzylidene)hydrazinyl)-2-(1-(pyridin-2-yl)propan-2-yloxy)pyrimidin-4-yl)morpholine], the EC50 was less than 1 µM.

Consider `Cc1ccc(/C=N/Nc2cc(N3CCOCC3)nc(OCCc3ccccn3)n2)cc1` [Compound 56, (E)-4-(6-(2-(4-Methylbenzylidene)hydrazinyl)-2-(2-(pyridin-2-yl)ethoxy)pyrimidin-4-yl)morpholine], for which the EC50 was less than 1 µM.

Take `N#Cc1cccc(/C=N/Nc2cc(N3CCOCC3)nc(OCCc3ccccn3)n2)c1` [Compound 48, (E)-3-((2-(6-Morpholino-2-(2-(pyridin-2-yl)ethoxy)pyrimidin-4-yl)hydrazono)methyl)benzonitrile]: the EC50 fell in the range of 1 to 50 µM.

For the compound `Cc1cccc(/C=N/Nc2cc(N3CCOCC3)nc(OCCc3ncccn3)n2)c1` [Compound 23, (E)-4-(6-(2-(3-Methylbenzylidene)hydrazinyl)-2-(2-(pyrimidin-2-yl)ethoxy)pyrimidin-4-yl)morpholine], the EC50 is less than 1 µM.

Consider `CCC(Oc1nc(N/N=C/c2cccc(C)c2)cc(N2CCOCC2)n1)c1ncccn1` (stereo not drawn) [Compound 65, (E)-4-(6-(2-(3-Methylbenzylidene)hydrazinyl)-2-(1-(pyrimidin-2-yl)propoxy)pyrimidin-4-yl)morpholine], for which the EC50 was less than 1 µM.

Regarding `Cc1cc(/C=N/Nc2cc(N3CCOCC3)nc(OCCc3ccccn3)n2)ccn1` [Compound 19, (E)-4-(6-(2-((2-Methylpyridin-4-yl)methylene)hydrazinyl)-2-(2-(pyridin-2-yl)ethoxy)pyrimidin-4-yl)morpholine], the EC50 is more than 50 µM.

With `Cc1cccc(/C=N/Nc2cc(N3CCOCC3)nc(Oc3ccc4ncc(Cl)cc4c3)n2)c1` [Compound 66, (E)-4-(2-(3-Chloroquinolin-6-yloxy)-6-(2-(3-methylbenzylidene)hydrazinyl)pyrimidin-4-yl)morpholine], the EC50 is less than 1 µM.

`CCCN(CCC)c1cc(N/N=C/c2cccc(C)c2)nc(OCCc2ncccn2)n1` [Compound 24, (E)-6-(2-(3-Methylbenzylidene)hydrazinyl)-N,N-dipropyl-2-(2-(pyrimidin-2-yl)ethoxy)pyrimidin-4-amine]: the EC50 was more than 50 µM.

Take `Cc1cccc(/C=N/Nc2cc(N3CCS(=O)(=O)CC3)nc(OCCc3ccccn3)n2)c1` [Compound 16]: the EC50 is more than 50 µM.

As for `Cc1cccc(/C=N/Nc2cc(N3CCOCC3)nc(OCC(F)(F)c3ccccc3)n2)c1` [Compound 45, (E)-4-(2-(2,2-Difluoro-2-phenylethoxy)-6-(2-(3-methylbenzylidene)hydrazinyl)pyrimidin-4-yl)morpholine], the EC50 was 1 to 50 µM.

As for `Cc1cccc(/C=N/Nc2cc(N3CCCCC3)nc(OCCc3ccccn3)n2)c1` [Compound 21, (E)-4-(2-(3-Methylbenzylidene)hydrazinyl)-6-(piperidin-1-yl)-2-(2-(pyridin-2-yl)ethoxy)pyrimidine], the EC50 was more than 50 µM.

Consider `Cc1cccc(/C=N/Nc2cc(N3CCOCC3)nc(OCCc3ccc(N)nc3)n2)c1` [Compound 43, (E)-5-(2-(4-(2-(3-Methylbenzylidene)hydrazinyl)-6-morpholinopyrimidin-2-yloxy)ethyl)pyridin-2-amine], for which the EC50 was more than 50 µM.

On to `C/C(=N\Nc1cc(N2CCOCC2)nc(OCCc2ccccn2)n1)c1cccc(C)c1` [Compound 34, (E)-4-(2-(2-(Pyridin-2-yl)ethoxy)-6-(2-(1-m-tolylethylidene)hydrazinyl)pyrimidin-4-yl)morpholine], for which the EC50 was less than 1 µM.

Take `Cc1cccc(/C=N/Nc2cc(N3CCOCC3)nc(OCc3ncc(Cl)cn3)n2)c1` [Compound 52, (E)-4-(2-((5-Chloropyrimidin-2-yl)methoxy)-6-(2-(3-methylbenzylidene)hydrazinyl)pyrimidin-4-yl)morpholine]: the EC50 is less than 1 µM.

Regarding `Cc1cccc(/C=N/Nc2cc(N3CCOCC3)nc(OCCc3ccncn3)n2)c1` [Compound 29, (E)-4-(6-(2-(3-Methylbenzylidene)hydrazinyl)-2-(2-(pyrimidin-4-yl)ethoxy)pyrimidin-4-yl)morpholine], the EC50 lay in the range of 1 to 50 µM.

On to `Cc1cccc(/C=N/Nc2nc(OCCc3ccccn3)nc(N3CCOCC3)c2C#N)c1` [Compound 38, (E)-4-(2-(3-Methylbenzylidene)hydrazinyl)-6-morpholino-2-(2-(pyridin-2-yl)ethoxy)pyrimidine-5-carbonitrile], for which the EC50 was more than 50 µM.

Consider `Cc1cccc(/C=N/Nc2cc(N3CCOCC3)nc(OCc3nc(C)cc(C)n3)n2)c1` [Compound 59, (E)-4-(2-((4,6-Dimethylpyrimidin-2-yl)methoxy)-6-(2-(3-methylbenzylidene)hydrazinyl)pyrimidin-4-yl)morpholine], for which the EC50 was less than 1 µM.

As to `Cc1cccc(/C=N/Nc2cc(N3CCCOCC3)nc(OCCc3ccccn3)n2)c1` [Compound 35, (E)-4-(6-(2-(3-Methylbenzylidene)hydrazinyl)-2-(2-(pyridin-2-yl)ethoxy)pyrimidin-4-yl)-1,4-oxazepane], the EC50 was in the range of 1 to 50 µM.

For the compound `Cc1cccc(/C=N/Nc2cc(N3CCOCC3)nc(OCc3nccc(C)n3)n2)c1` [Compound 50, (E)-4-(6-(2-(3-Methylbenzylidene)hydrazinyl)-2-((4-methylpyrimidin-2-yl)methoxy)pyrimidin-4-yl)morpholine], the EC50 was less than 1 µM.

With `Cc1cccc(/C=N/Nc2cc(N3CCOCC3)nc(OCCc3cnccn3)n2)c1` [Compound 44, (E)-4-(6-(2-(3-Methylbenzylidene)hydrazinyl)-2-(2-(pyrazin-2-yl)ethoxy)pyrimidin-4-yl)morpholine], the EC50 was in the range of 1 to 50 µM.

With `COc1c(N/N=C/c2cccc(C)c2)nc(OCCc2ccccn2)nc1N1CCOCC1` [Compound 31, (E)-4-(5-Methoxy-6-(2-(3-methylbenzylidene)hydrazinyl)-2-(2-(pyridin-2-yl)ethoxy)pyrimidin-4-yl)morpholine], the EC50 is 1 to 50 µM.

For the compound `Cc1cccc(/C=N/Nc2cc(N3CCOCC3)nc(OCCCc3ccccn3)n2)c1` [Compound 14, (E)-4-(6-(2-(3-Methylbenzylidene)hydrazinyl)-2-(3-(pyridin-2-yl)propoxy)pyrimidin-4-yl)morpholine], the EC50 is less than 1 µM.

Turning to `Cc1cccc(/C=N/Nc2cc(N3CCOCC3)nc(Oc3ccc4ccccc4c3)n2)c1` [Compound 53, (E)-4-(6-(2-(3-Methylbenzylidene)hydrazinyl)-2-(naphthalen-2-yloxy)pyrimidin-4-yl)morpholine], the half-maximal effective concentration (EC50) was less than 1 µM.

With `Cc1cccc(/C=N/Nc2cc(N3CCOCC3)nc(OC(C)c3ncccn3)n2)c1` (stereo not drawn) [Compound 49, (E)-4-(6-(2-(3-Methylbenzylidene)hydrazinyl)-2-(1-(pyrimidin-2-yl)ethoxy)pyrimidin-4-yl)morpholine], the EC50 was less than 1 µM.

Consider `C(=N\Nc1cc(N2CCOCC2)nc(OCCc2ccccn2)n1)/c1ccncc1` [Compound 17, (E)-4-(2-(2-(Pyridin-2-yl)ethoxy)-6-(2-(pyridin-4-ylmethylene)hydrazinyl)pyrimidin-4-yl)morpholine], for which the EC50 was more than 50 µM.

With `Cc1cccc(/C=N/Nc2cc(N3CCOCC3)nc(Oc3ccc4nc(C)ccc4c3)n2)c1` [Compound 62, (E)-4-(6-(2-(3-Methylbenzylidene)hydrazinyl)-2-(2-methylquinolin-6-yloxy)pyrimidin-4-yl)morpholine], the EC50 is less than 1 µM.

Consider `Cc1cccc(/C=N/Nc2cc(N3CCOCC3)nc(Oc3ccc4nc(Cl)ccc4c3)n2)c1` [Compound 55, (E)-4-(2-(2-Chloroquinolin-6-yloxy)-6-(2-(3-methylbenzylidene)hydrazinyl)pyrimidin-4-yl)morpholine], for which the EC50 was less than 1 µM.

In the case of `Cc1cccc(/C=N/Nc2cc(N3CCOCC3)nc(-c3cccc(O)c3)n2)c1` [Compound 27, (E)-3-(4-(2-(3-Methylbenzylidene)hydrazinyl)-6-morpholinopyrimidin-2-yl)phenol], the EC50 lay in the range of 1 to 50 µM.

Take `Cc1cccc(/C=N/Nc2cc(N3CCOCC3)nc(OCCc3ccc(N4CCOCC4)cn3)n2)c1` [Compound 57]: the EC50 is more than 50 µM.

For the compound `Cc1cccc(/C=N/Nc2cc(N3CCOCC3)nc(OCC(C)(C)c3ccccc3)n2)c1` [Compound 36, (E)-4-(2-(2-Methyl-2-phenylpropoxy)-6-(2-(3-methylbenzylidene)hydrazinyl)pyrimidin-4-yl)morpholine], the EC50 is 1 to 50 µM.

Turning to `Cc1cccc(/C=N/Nc2cc(N3CCOCC3)nc(OCc3ccccc3)n2)c1` [Compound 47, (E)-4-(2-(Benzyloxy)-6-(2-(3-methylbenzylidene)hydrazinyl)pyrimidin-4-yl)morpholine], the EC50 was less than 1 µM.

`C(=N\Nc1cc(N2CCOCC2)nc(OCCc2ccccn2)n1)/c1cncnc1` [Compound 12, (E)-4-(2-(2-(Pyridin-2-yl)ethoxy)-6-(2-(pyrimidin-5-ylmethylene)hydrazinyl)pyrimidin-4-yl)morpholine]: the EC50 was more than 50 µM.

Consider `Cc1cccc(/C=N/Nc2cc(N3CCOCC3)nc(OCc3nccc(C(F)(F)F)n3)n2)c1` [Compound 54, (E)-4-(6-(2-(3-Methylbenzylidene)hydrazinyl)-2-((4-(trifluoromethyl)pyrimidin-2-yl)methoxy)pyrimidin-4-yl)morpholine], for which the EC50 was less than 1 µM.

As for `Cc1cccc(/C=N/Nc2cc(N3CC(C)OC(C)C3)nc(OCCc3ccccn3)n2)c1` (stereo not drawn) [Compound 22, (E)-2,6-Dimethyl-4-(6-(2-(3-methylbenzylidene)hydrazinyl)-2-(2-(pyridin-2-yl)ethoxy)pyrimidin-4-yl)morpholine], the EC50 was 1 to 50 µM.

In the case of `Cc1cccc(/C=N/N(C)c2cc(N3CCOCC3)nc(OCCc3ccccn3)n2)c1` [Compound 37, (E)-4-(6-(1-Methyl-2-(3-methylbenzylidene)hydrazinyl)-2-(2-(pyridin-2-yl)ethoxy)pyrimidin-4-yl)morpholine], the EC50 fell in the range of 1 to 50 µM.

On to `Cc1cccc(/C=N/Nc2cc(N3CCOCC3)nc(OCC(C)c3ccccn3)n2)c1` (stereo not drawn) [Compound 13, (E)-4-(6-(2-(3-Methylbenzylidene)hydrazinyl)-2-(2-(pyridin-2-yl)propoxy)pyrimidin-4-yl)morpholine], for which the EC50 is less than 1 µM.
